What all share (format): physicochemical
The nature of series [1]: Determination of apparent solubility (saturation solubility by HPLC) in diluents of different pH. The following applies: for solubility at 12 h: 37 °C, thermodynamic from solid; for solubility at 12 h / Apparent solubility: shaken 12 hours, average of 3; for Apparent solubility: 37° C. The protocol: The crystalline Idelalisib, Form I, was prepared according to the method of Example 1 of U.S. Pat. No. 8,865,730.
Determination of apparent solubility: weigh a certain amount of the sample into a 1.8 mL of centrifuge tube, add 1 mL of the specified pH diluent, cap tightly. Each solution was prepared with 3 replicates (the amount of the added sample must be much larger than of which can be formed a saturated solution at different pH, details were shown in Table 1), and then 1 mL of the designated pH diluent was added. Then the centrifuge tube containing the test solution was shaken in a water bath at 37° C.±0.5° C. for 12 hours, let Stand in an oven at 37° C. for 2 hours. The upper lay was filtered through a […] microporous membrane. Pipette 200 uL of the filtrated solution into a vial containing 200 uL of acetonitrile, shaken to mix. Label it as test solution. Inject 2 uL of the test solution to HPLC system, record the peak area of main peak. Inject the reference standard solution following the same procedure as the test solution, record the peak area of the main peak of reference standard. According to the main peak area of the test solution and the reference solution, the concentration of the reference solution and the concentration of the test solution are calculated by external standard method. Then the saturation solubility will be obtained by multiplying concentration by the dilution factor of 2. The final result of saturation solubility is the average result of three parallel test samples.
Preparation of reference standard solution: accurately weight about 25 mg of Idelalisib (Form I) into a 25 mL of volumetric flask, dissolve and dilute to the volume with diluent (acetonitrile:water=1:1). The concentration of the reference standard is about 1 mg/mL.
Preparation of Diluents of Different pH:
(1) pH=1.0 diluent: Add 9 mL of concentrated HCl to a 1000 mL of volumetric flask, diluted to the volume with water.
(2) pH=2.0 diluent: Solution A: Transfer 16.6 mL of phosphoric acid to a 100 mL volumetric flask, dilute to the volume with water, shake to mix. Solution B: Weigh and transfer 71.63 g of […] to a 1000 mL of volumetric flask, dilute to the volume with water, dissolve and mix well. Mix 72.5 mL of solution A and 27.5 mL of solution B.
(3) pH=3.0 diluent: transfer 50 mL of glacial acetic acid to a 1000 mL of volumetric flask, add 800 mL of water, adjust pH to 3.0 with lithium hydroxide, then diluted to the volume with water.
(4) pH=4.0 diluent: weigh and transfer 7.7 g of ammonium acetate, dissolve with 50 mL of water, add 6 mL of glacial acetic acid, then diluted to 100 mL with water.
(5) pH=5.6 diluent: Phthalate buffer (pH 5.6): Transfer 10 g of potassium hydrogen phthalate, add 900 mL of water, stir to dissolve, adjust pH to 5.6 with sodium hydroxide solution (or diluted hydrochloric acid if necessary) then diluted to the volume with water.
(6) pH=6.8 diluent: mix 250 mL of 0.2 mol/L potassium dihydrogen phosphate solution and 118 mL of 0.2 mol/L sodium hydroxide solution, diluted to 1000 mL with water, shaken to mix.
(7) pH=7.4 diluent: transfer 1.36 g of potassium dihydrogen phosphate, add 79 mL of 0.1 mol/L sodium hydroxide solution, diluted to 200 mL with water.

Series [2] in a line: Impact factor test of the amorphous Idelalisib (high temperature, high humidity; HPLC and XRPD).
A short description of series [3]: Accelerated stability test of the amorphous Idelalisib (HPLC and XRPD). The following applies: for Crystalline (XRPD) / Relevant substances (Total impurities %): Temperature 40° C. ± 2° C., Humidity 75% ± 5%. Here is the method: Experiment conditions: temperature 40° C.±2° C., humidity 75%±5% The substance was detected by HPLC.
Series [4] can be described thus: Determination of apparent solubility (saturation solubility by HPLC) in diluents of different pH. To be noted: pH 4.5 diluent, 37° C., shaken 12 hours, average of 3.
Setting [5] is: high temperature, high humidity after 10 days.
Setting [6] is: accelerated test conditions after 6 months.

≈ marks a conversion by molar mass, not a printed value.

In the case of `CC[C@H](Nc1ncnc2[nH]cnc12)c1nc2cccc(F)c2c(=O)n1-c1ccccc1` [amorphous Idelalisib, 5-fluoro-3-phenyl-2-[(1S)-1-(9H-purin-6-ylamino)propyl]-4(3H)-quinazolinone], the “Apparent solubility compared with that of the Form I” value in series [1] (at each pH (1.0 to 7.4)) is on record as “significantly higher”. The solubility – broadly, the concentration that dissolves in the medium under given conditions – at 12 h in series [1] (pH 1.0 diluent (dilute HCl), pH 1, simulated gastric fluid, pH 1.0 diluent) was 52700 µg/mL (≈ 127000 µM); in series [1] (pH 5.6 diluent (phthalate buffer), pH 5.6, aqueous buffer, pH 5.6 diluent), 75.8 µg/mL (≈ 182 µM); in series [1] (pH 6.8 diluent (phosphate buffer), pH 6.8, aqueous buffer, pH 6.8 diluent), 75.3 µg/mL (≈ 181 µM); in series [1] (pH 7.4 diluent (phosphate buffer), pH 7.4, aqueous buffer, pH 7.4 diluent) it was 74.3 µg/mL (≈ 179 µM). In addition, the figures for the Apparent solubility in series [1] (pH 2.0 diluent), in series [1] (pH 3.0 diluent) and in series [4] were 7037.94 µg/mL, 1622.95 µg/mL and 694.19 µg/mL, respectively. Moreover, the “Crystalline (XRPD)” value in series [2] (0 day) is reported as “There is no peak of crystalline Idelalisib”; in series [2] (5 days, all four conditions (40° C., 60° C., humidity 75%, 90%)) it was “There is no peak of crystalline Idelalisib”; in series [2] (10 days, all four conditions (40° C., 60° C., humidity 75%, 90%)), “There is no peak of crystalline Idelalisib”; in series [3] (0 month) it was “There is no peak of crystalline Idelalisib”; in series [3] (1 month), “There is no peak of crystalline Idelalisib”; in series [3] (2 months) it was “There is no peak of crystalline Idelalisib”. Further, the “Crystalline (XRPD)” value in series [3] (3 months) and in series [3] (6 months) was “There is no peak of crystalline Idelalisib” in each case. The “Relevant substances (Total impurities %)” value is recorded as 0.12% in series [2] (0 day); 0.14% in series [2] (5 days, Humidity 75% ± 5%); 0.16% in series [2] (5 days, Humidity 90% ± 5%); 0.13% in series [2] (5 days, Temperature 40° C. ± 2° C.); 0.14% in series [2] (5 days, Temperature 60° C. ± 2° C.); 0.14% in series [2] (10 days, Humidity 75% ± 5%). The “Relevant substances (Total impurities %)” value in series [2] (10 days, Humidity 90% ± 5%) was determined as 0.16%; in series [2] (10 days, Temperature 40° C. ± 2° C.), 0.14%; in series [2] (10 days, Temperature 60° C. ± 2° C.) it was 0.16%; in series [3] (0 month), 0.12%; in series [3] (1 month), 0.14%; in series [3] (2 months), 0.15%. The entries for the “Relevant substances (Total impurities %)” value in series [3] (3 months) and in series [3] (6 months) were 0.16% and 0.19%, respectively. Further, the “Changes in the relevant substances” value in series [2] (setting [5]) and in series [3] (setting [6]) was “no significant changes” in each case. Further, the “Crystallization of Idelalisib” value in series [2] (setting [5]) and in series [3] (setting [6]) was “no crystallization of Idelalisib was observed” in each case.
`CC[C@H](Nc1ncnc2[nH]cnc12)c1nc2cccc(F)c2c(=O)n1-c1ccccc1` [crystalline Idelalisib (Form I), 5-fluoro-3-phenyl-2-[(1S)-1-(9H-purin-6-ylamino)propyl]-4(3H)-quinazolinone, reference compound]: the Apparent solubility stood at 34580.16 µg/mL in series [1] (pH 1.0 diluent); 1756.55 µg/mL in series [1] (pH 2.0 diluent); 317.47 µg/mL in series [1] (pH 3.0 diluent); 46.91 µg/mL in series [1] (pH 5.6 diluent); 47.35 µg/mL in series [1] (pH 6.8 diluent); 45.08 µg/mL in series [1] (pH 7.4 diluent). Besides, in series [4], the Apparent solubility is 147.02 µg/mL.

Values taken from patent publication US10370376B2, “Amorphous substance of Idelalisib and preparation method therefor” (Alnova Pharmaceuticals, Ltd., priority 2015, dated 2019).
